# Tests used:
# CYP3A4 [1] = molecular target: T1, CYP3A4 (Homo sapiens, UniProt P08684)
# Description: In FIGS. 3-6, CYP3A4 enzyme was co-expressed with cytochrome b5 and cytochrome P450 reductase in membrane fractions (Supersomes™). […] The reactions were initiated by addition of the NADPH regenerating system and incubated for 10 minutes at 37° C. After incubation, an equal volume (50 μl) of LDR was added and luminescence read 20 minutes later at room temperature on a Veritas™ luminometer. […] IC50 is the concentration of inhibitor that causes 50% inhibition of the reaction. Curve fits and IC50 calculations were performed with the program GraphPad Prism™.
# CYP3A4 [2] = molecular target: T1, CYP3A4; conditions: cited from earlier work
# CYP3A4 [3] = molecular target: T1, CYP3A4; conditions: non-acetal CYP3A4 substrates, Cali et al. 2006; cited from earlier work
# CYP3A4 [4] = molecular target: T1, CYP3A4; assay: Two-step luminescent P450 assay with luciferin derivatives, recombinant enzyme panel screen; type: biochemical; set-up: purchased Discovery Labware (Supersomes™); host or cells: insect cell expression system; conditions: for signal/background (S/B) ratio: CYP3A4 vs minus P450 control, 50 μM substrate, 1 pmole P450, 30 minutes at 37° C. (FIG. 2)
# Description: (§1) For assays using recombinant P450 enzymes, a two-step scheme was followed whereby a luciferin derivative is oxidized by a P450 enzyme in a first step. In the second step, LDR is added to the P450 reaction mixture to stop the P450 activity and initiate a glow-style luciferase reaction whereby the luminescent signal strength is dependent on the amount of luciferin derivative oxidized by a P450 enzyme in the first step.
# (§2) Reaction buffers for the P450 enzyme reaction of the first step varied depending on the P450 enzyme used. […] Unless otherwise indicated, the following buffer/enzyme combinations were used: 100 mM KPO4, pH 7.4 for CYP1A1, 1A2, 1B1, 2D6, 2E1, 3A5, 3A7, 2J2, 4F12, 19, and control samples; 50 mM KPO4, pH 7.4 for CYP2B6, 2C8, 2C19, 4F2, 4F3A, 4F3B; 25 mM KPO4, pH 7.4 for CYP2C9; 200 mM KPO4, pH 7.4 for CYP3A4; 100 mM TrisHCl, pH 7.5 for CYP2A6, 2C18, 4A11.
# (§3) In FIG. 2 and FIGS. 8-19, luciferin derivatives were screened against a panel of recombinant human cytochrome P450 enzyme and control microsomes (Supersomes™). Concentrated stock solutions of the proluciferin acetal compounds were prepared as follows: 50 mM 3320, 3357, 3364, 3366 and 3391 in acetonitrile; 50 mM 3359, 3365, 3397 and 3403 in dimethyl sulfoxide (DMSO); 50 mM 3377 in H2O; 10 mM 3363 in H2O. Luciferin-PPXE, luciferin-PFBE and luciferin-BE were provided as a 50 mM solution in DMSO, 2 mM solution in 25 mM Tris, pH 8 and a 5 mM solution in 100 mM KPO4, pH 7.4, respectively. Assays were performed in opaque, white, polystyrene, flat-bottom 96-well plates.
# (§4) In FIG. 20 using compound 3391, the method used in FIGS. 2 and 8-19 was used with the following changes: 0.1 picomole of each P450 enzyme or an equivalent volume of control membranes was used per reaction; for all reactions, 2 μM compound 3391 was used, 100 mM KPO4, pH 7.4 was used as the P450 reaction buffer, and the reaction was incubated for 10 minutes at 37° C.
# (§5) Briefly, in a first step a proluciferin acetal of the present invention is oxidized initially by a P450 enzyme. The oxidized product is then thought to undergo a non-enzymatic conversion to a proluciferin ester. In a second step, the proluciferin ester is detected by adding a luciferase reaction mixture containing an esterase enzyme that converts the proluciferin ester to luciferin. The luciferin reacts with luciferase to produce an amount of light that is proportional to the amount of luciferin, and therefore to the amount of P450 enzyme activity. A sample that contains active P450 enzyme is typically compared to a control that is devoid of P450 activity.
# CYP3A4 versus CYP3A5 = molecular target: T2, CYP3A4 versus CYP3A5 (Homo sapiens, UniProt P20815); assay: Two-step luminescent P450 assay, recombinant enzyme panel screen; type: biochemical; conditions: human, recombinant human CYP3A4 and CYP3A5 microsomes (Supersomes), pH 7.4; FIG. 2 conditions: 50 μM compound, 1 pmole P450, 30 minutes; read-out: selectivity for CYP3A4 over CYP3A5
# T2 construct: purchased Discovery Labware (Supersomes™); host or cells: insect cell expression system
# Description: as §1, §2, §3, §4, §5
# CYP3A4 versus CYP3A7 = molecular target: T3, CYP3A4 versus CYP3A7 (Homo sapiens, UniProt P24462); assay: as above; type: biochemical; conditions: human, recombinant human CYP3A4 and CYP3A7 microsomes (Supersomes), pH 7.4; FIG. 2 conditions: 50 μM compound, 1 pmole P450, 30 minutes; read-out: selectivity for CYP3A4 over CYP3A7
# T3 construct: purchased Discovery Labware (Supersomes™); host or cells: insect cell expression system
# Description: as §1, §2, §3, §4, §5
# CYP3A5 = molecular target: T4, CYP3A5 (Homo sapiens, UniProt P20815); assay: as above; type: biochemical; conditions: FIG. 20 conditions: 2 μM compound, 0.1 picomole P450, 100 mM KPO4 pH 7.4, 10 minutes at 37° C.
# T4 construct: purchased Discovery Labware (Supersomes™); host or cells: insect cell expression system
# Description: as §1, §2, §3, §4, §5
# CYP3A7 = molecular target: T5, CYP3A7 (Homo sapiens, UniProt P24462); assay: as above; type: biochemical; conditions: FIG. 20 conditions: 2 μM compound, 0.1 picomole P450, 100 mM KPO4 pH 7.4, 10 minutes at 37° C.
# T5 construct: purchased Discovery Labware (Supersomes™); host or cells: insect cell expression system
# Description: as §1, §2, §3, §4, §5
# [5] = system: panel of 21 recombinant human cytochrome P450 enzymes; assay: as above; type: biochemical
# Description: as §1, §2
# In FIG. 2 and FIGS. 8-19, luciferin derivatives were screened against a panel of recombinant human cytochrome P450 enzyme and control microsomes (Supersomes™). […]
# Briefly, in a first step a proluciferin acetal of the present invention is oxidized initially by a P450 enzyme. […] In a second step, the proluciferin ester is detected by adding a luciferase reaction mixture containing an esterase enzyme that converts the proluciferin ester to luciferin. […]
# CYP3A4 [6] = molecular target: T1, CYP3A4; assay: Concentration dependence of the CYP3A4 reaction with compound 3391; type: biochemical; set-up: purchased Discovery Labware (Supersomes™); host or cells: insect cell expression system
# Description: The reactions were performed as described for FIGS. 3-6 except no inhibitors were present in the reactions, and the concentration of compound 3391 varied as indicated in FIG. 7. Signals are expressed as net relative luminescent units (RLU) calculated by subtracting the background RLU values of control reaction mixtures that lack CYP3A4 enzyme from the RLU values of the CYP3A4 reactions. The curve fit was performed with the program GraphPad Prism™.
# FIG. 7 illustrates the concentration dependence of the CYP3A4 reaction with compound 3391. […] The data fit well to a substrate inhibition model (R^2=0.99) described by the equation Y=(Vmax·X)/(Km+X+(X·X/Ki)), where X=substrate concentration, Y=activity in relative light units (RLU), Km=[…] and Ki=the substrate inhibition constant.
# T1 sequence (P08684 whole entry): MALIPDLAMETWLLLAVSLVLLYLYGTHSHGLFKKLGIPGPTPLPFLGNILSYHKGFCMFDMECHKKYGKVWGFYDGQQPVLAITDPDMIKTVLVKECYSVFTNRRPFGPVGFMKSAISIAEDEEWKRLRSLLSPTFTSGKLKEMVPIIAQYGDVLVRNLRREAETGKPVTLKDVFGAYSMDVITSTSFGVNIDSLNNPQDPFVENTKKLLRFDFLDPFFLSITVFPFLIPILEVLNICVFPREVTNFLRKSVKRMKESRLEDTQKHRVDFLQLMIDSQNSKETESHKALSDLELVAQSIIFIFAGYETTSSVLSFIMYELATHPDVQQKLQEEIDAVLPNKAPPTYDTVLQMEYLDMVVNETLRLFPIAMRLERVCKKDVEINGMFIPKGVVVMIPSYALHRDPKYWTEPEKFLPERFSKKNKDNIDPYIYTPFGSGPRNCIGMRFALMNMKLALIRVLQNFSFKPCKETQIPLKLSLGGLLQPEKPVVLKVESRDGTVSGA
# T3 sequence (P24462 whole entry): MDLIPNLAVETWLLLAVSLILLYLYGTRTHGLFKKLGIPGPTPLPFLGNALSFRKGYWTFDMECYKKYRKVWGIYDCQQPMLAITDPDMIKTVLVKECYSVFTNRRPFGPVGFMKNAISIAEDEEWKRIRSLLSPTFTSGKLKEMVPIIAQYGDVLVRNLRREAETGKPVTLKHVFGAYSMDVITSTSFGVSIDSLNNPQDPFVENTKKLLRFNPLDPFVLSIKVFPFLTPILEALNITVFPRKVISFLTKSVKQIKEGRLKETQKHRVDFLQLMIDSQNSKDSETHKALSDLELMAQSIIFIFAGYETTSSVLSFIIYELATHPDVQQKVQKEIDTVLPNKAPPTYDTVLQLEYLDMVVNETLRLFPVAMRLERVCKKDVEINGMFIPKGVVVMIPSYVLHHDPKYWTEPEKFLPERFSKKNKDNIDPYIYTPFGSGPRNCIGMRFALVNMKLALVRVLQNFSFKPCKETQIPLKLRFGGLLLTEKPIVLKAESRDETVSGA
# T5 sequence (P24462 whole entry): as above
# T2 sequence (P20815 whole entry): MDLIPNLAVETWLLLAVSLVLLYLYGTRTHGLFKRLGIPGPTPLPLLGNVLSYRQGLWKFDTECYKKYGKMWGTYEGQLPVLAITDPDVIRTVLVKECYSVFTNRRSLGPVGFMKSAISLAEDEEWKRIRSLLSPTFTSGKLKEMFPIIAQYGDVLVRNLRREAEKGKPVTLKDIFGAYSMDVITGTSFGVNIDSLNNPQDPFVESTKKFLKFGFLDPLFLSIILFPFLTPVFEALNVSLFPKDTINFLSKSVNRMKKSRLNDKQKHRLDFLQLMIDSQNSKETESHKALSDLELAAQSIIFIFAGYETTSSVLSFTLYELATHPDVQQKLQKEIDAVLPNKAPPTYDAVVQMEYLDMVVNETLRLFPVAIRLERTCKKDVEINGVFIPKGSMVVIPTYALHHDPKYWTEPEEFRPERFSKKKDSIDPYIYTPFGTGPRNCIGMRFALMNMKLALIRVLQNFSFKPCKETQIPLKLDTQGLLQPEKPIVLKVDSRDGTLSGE
# T4 sequence (P20815 whole entry): as above
smiles,measurement,setting,value
Cc1ncc2n1-c1ccc(Cl)cc1C(c1ccccc1F)=NC2 [midazolam],effect on the CYP3A4/3391 reaction,CYP3A4 [1],inhibited
same,effect on CYP3A4 assay using luciferin-BE,CYP3A4 [2],inhibited
same,effect on CYP3A4 assay using luciferin-PFBE,CYP3A4 [2],inhibited
same,effect on CYP3A4 assay using luciferin-PPXE,CYP3A4 [2],inhibited
"O=C(O)[C@H]1CSC(c2nc3ccc(OC(F)(F)c4c(F)c(F)c(F)c(F)c4F)cc3s2)=N1 [luciferin-PFBE, (S)-2-(6-(perfluorobenzyloxy)-benzo[d]thiazol-2-yl)-4,5-dihydrothiazole-4-carboxylic acid, reference compound]",Km,CYP3A4 [3],50 µM
same,signal/background (S/B) ratio,CYP3A4 [4],92
"O=C(O)[C@H]1CSC(c2nc3ccc(OCc4ccccc4)cc3s2)=N1 [luciferin-BE, (S)-2-(6-(benzyloxy)benzo[d]thiazol-2-yl)-4,5-dihydrothiazole-4-carboxylic acid, reference compound]",Km,CYP3A4 [3],50 µM
same,signal/background (S/B) ratio,CYP3A4 [4],55
CC(C)OC(OC(C)C)C1CSC(c2nc3ccc(O)cc3s2)=N1 (stereo not drawn) [compound 3391],"selectivity ratio at 30 min, 50 μM",CYP3A4 versus CYP3A5,1.4
same,"selectivity ratio at 30 min, 50 μM",CYP3A4 versus CYP3A7,8.5
same,preference for CYP3A4 over CYP3A5,CYP3A5,8.0 fold
same,preference for CYP3A4 over CYP3A7,CYP3A7,48.5 fold
same,"selectivity/preference for the CYP3A subfamily (CYP3A4, CYP3A5, CYP3A7)","[5]; 50 μM, one picomole enzyme, 30 minutes at 37° C.",excellent selectivity
same,activities with the other P450 enzymes screened,"[5]; FIG. 20 conditions: 2 μM compound, 0.1 picomole P450, 10 minutes",negligible
same,fraction of compound oxidized during the incubation,"CYP3A4 [4]; 0.1 picomoles of CYP3A4, 10 minute incubation, 2 μM",less than 10%
same,signal/background (S/B) ratio,CYP3A4 [4],1699
same,time over which product accumulation with CYP3A4 is linear,CYP3A4 [4]; FIG. 20 conditions,at least 10 minutes
same,substrate concentration at maximal rate,CYP3A4 [6]; FIG. 7,12.5 µM
same,Ki,"CYP3A4 [6]; substrate inhibition model fit, read-out: Ki (substrate inhibition constant)",171 µM
"O=C(O)[C@H]1CSC(c2nc3ccc(OCc4cccc(CN5CCN(c6ccccc6)CC5)c4)cc3s2)=N1 [luciferin-PPXE, (S)-2-(6-(3-((4-phenylpiperazin-1-yl)methyl)benzyloxy)benzo[d]thiazol-2-yl)-4,5-dihydrothiazole-4-carboxylic acid, reference compound]",Km,CYP3A4 [3],25 µM
same,signal/background (S/B) ratio,CYP3A4 [4],56

# From patent US8288559B2, “Luminogenic compounds and methods to detect cytochrome P450 3A enzymes” (Promega Corporation, priority 2008, dated 2012)
